Test results taken from patent publication US8367632B2, “Methods for reverting methylation by targeting methyltransferases” (Ohio State University Research Foundation, priority 2007, dated 2013).

Columns and labels:
Assay type in all cases: cell-based, human
DNMT3A 3′UTR = test: Luciferase reporter assay for targeting DNMT 3′UTRs (DNMT3A); conditions: A549 cells, 100 nM precursor miR, 24 h after transfection, with respect to the scrambled oligonucleotide
From the text: (§1) To validate these miRNA-target interactions in vivo, the DNMT3A and DNTM3B complementary sites were cloned into the 3′UTR of the firefly luciferase gene and co-transfected with miR-29a, mi-R29b or miR-29c in […] (NSCLC) cells.
Luciferase reporter assay for targeting DNMT 3′UTRs. For luciferase reporter experiments a DNMT3A 3′UTR segment of 979 bp and a DNMT3B 3′UTR segment of 978 bp were amplified by PCR from human genomic DNA and inserted into the pGL3-control vector with SV40 promoter (Promega), using the XbaI site immediately […] from the stop codon of luciferase. The following sets of primers were used to generate specific fragments:
The amplified 3′UTR of DNMT3A contains an XbaI restriction site in position 583, so we cloned separately the upstream 3′UTR (DNMT3A 3′-UTRup=583 bp) and the downstream fragment (DNMT3A 3′-UTRdown=396 bp) into the pGL3 vectors. […]
A549 cells were co-transfected in 12-well plates by using Lipofectamine 2000 reagent (Invitrogen), according to the manufacturer's protocol, with 0.4 μg of the firefly luciferase report vector and 0.08 μg of the control vector containing Renilla luciferase pRL-TK vector (Promega). […] Firefly and Renilla luciferase activities were measured consecutively by using dual-luciferase assays (Promega), 24 h after the transfection. […]

DNMT3B 3′UTR = test: Luciferase reporter assay for targeting DNMT 3′UTRs (DNMT3B); conditions: A549 cells, 100 nM precursor miR, 24 h after transfection, with respect to the scrambled oligonucleotide
From the text: as §1
Luciferase reporter assay for targeting DNMT 3′UTRs. For luciferase reporter experiments a DNMT3A 3′UTR segment of 979 bp and a DNMT3B 3′UTR segment of 978 bp were amplified by PCR from human genomic DNA and inserted into the pGL3-control vector with SV40 promoter (Promega), using the XbaI site immediately […] from the stop codon of luciferase. The following sets of primers were used to generate specific fragments: […]
A549 cells were co-transfected in 12-well plates by using Lipofectamine 2000 reagent (Invitrogen), according to the manufacturer's protocol, with 0.4 μg of the firefly luciferase report vector and 0.08 μg of the control vector containing Renilla luciferase pRL-TK vector (Promega). For each well, 100 nM (final) of precursor miR-29a, 29b-1, 29c or scrambled miR (Ambion) was used. Firefly and Renilla luciferase activities were measured consecutively by using dual-luciferase assays (Promega), 24 h after the transfection. The experiments were performed in triplicate.

FHIT mRNA = FHIT mRNA level by qRT-PCR; conditions: A549 cells, 48 h after transfection
Procedure: (§2) To characterize effects of the methylation changes on gene expression, the mRNA expression levels of two TSGs, FHIT and WWOX, which are frequently silenced by promoter methylation in lung cancer^14 were analyzed.
(§3) Quantitative RT-PCR. Quantitative RT-PCR (qRT-PCR) analysis for miRNA s was performed in triplicate with the TaqMan MicroRNA assays kit (Applied Biosystems, Foster City, Calif.), according to the manufacturer's instructions. 18S RNA was used for normalization; qRT-PCR analyses for other genes of interest were performed as previously described. RNA was reverse transcribed to cDNA with gene-specific primers and IQ SYBR Green Supermix (Biorad, Hercules, Calif.). GAPDH served as normalization control. For the silencing of miR-29s, A549 and H1299 cells were transfected in 6-well plates by using Lipofectamine 2000 reagent (Invitrogen), according to the manufacturer's protocol, with 100 nM (final) of antisense miR-29a, 29b-1, 29c or scrambled antisense miR (Fidelity Systems, Gaithersburg, Md.).

WWOX mRNA = WWOX mRNA level by qRT-PCR; conditions: A549 cells, 48 h after transfection
Procedure: as §2, §3

Substance	luciferase activity (DNMT3A complementary site in 3′UTR of firefly luciferase) (DNMT3A 3′UTR)	luciferase activity (DNMT3B complementary site in 3′UTR of firefly luciferase) (DNMT3B 3′UTR)	increase of FHIT expression (mRNA) (FHIT mRNA) [%]	increase of WWOX mRNA level (WWOX mRNA) [%]
miR-29a: microRNA of the miR-29 family, SEQ ID NO: 1; transfected as precursor miR-29a (Ambion) (UAGCACCAUCUGAAAUCGGUU; listed as RNA, chemistry not given here)	significantly reduced	significantly reduced	~65	~40
miR-29c: microRNA of the miR-29 family, SEQ ID NO: 3; transfected as precursor miR-29c (Ambion) (UAGCACCAUUUGAAAUCGGU; listed as RNA, chemistry not given here)	significantly reduced	significantly reduced	~74	–
